Results taken from ChEMBL document CHEMBL6153135, “Rational Design of a Potent, Selective, and Metabolically Stable CDK9 Inhibitor to Counteract Osimertinib Resistance through Mcl-1 Suppression and Enhanced BRD4 Co-Targeting” (J Med Chem, 2025).
Active and inactive are the calls of the source. No cut-off for these calls is given here.

How the values were obtained:
[1] = Drug concentration in tumor of BALB-c nude mouse xenografted with human NCI-H1975 cells at 15 mg/kg, iv measured after 30 mins by LC-MS/MS analysis; type: ADME, organism-based, Neoplasm; settings: read-out: Ct
[2] = Metabolic stability in human liver microsomes assessed as half life measured for 5 to 60 mins by LC-MS/MS analysis; type: ADME, Microsome; settings: time 5-60 min
CDK2/Cyclin A2 = CDK2/Cyclin A2 (Homo sapiens, UniProt P24941); assay: Inhibition of CDK2/Cyclin A2 (unknown origin) preincubated for 10 mins followed by substrate/ATP measured after 60 mins by ADP-Glo assay; type: protein-complex assay
[3] = Metabolic stability in pig liver microsomes assessed as half life measured for 5 to 60 mins by LC-MS/MS analysis; type: ADME, Sus scrofa, Microsome; settings: time 5-60 min
[4] = Metabolic stability in mouse liver microsomes assessed as clearance measured for 5 to 60 mins by LC-MS/MS analysis; type: ADME, Microsome; settings: time 5-60 min, read-out: CLH
[5] = Metabolic stability in monkey liver microsomes assessed as clearance measured for 5 to 60 mins by LC-MS/MS analysis; type: ADME, Macaca mulatta, Microsome; settings: rhesus monkey, time 5-60 min, read-out: CLH
[6] = Metabolic stability in human liver microsomes assessed as clearance measured for 5 to 60 mins by LC-MS/MS analysis; type: ADME, Microsome; settings: time 5-60 min, read-out: CLH
[7] = AUC (0 to t) in Sprague-Dawley rat at 2 mg/kg, iv; type: ADME, organism-based; settings: in vivo
[8] = Clearance in Sprague-Dawley rat at 2 mg/kg, iv; type: ADME, organism-based; settings: in vivo
[9] = Tmax in Sprague-Dawley rat at 20 mg/kg, po; type: ADME, organism-based; settings: in vivo
[10] = Drug concentration in plasma of BALB-c nude mouse xenografted with human NCI-H1975 cells at 15 mg/kg, iv measured after 30 mins by LC-MS/MS analysis; type: ADME, organism-based
[11] = molecular target: Homeodomain-interacting protein kinase 2 (Homo sapiens) (UniProt Q9H2X6); assay: Inhibition of HIPK2 (unknown origin) at 100 nM preincubated for 10 mins followed by substrate/ATP measured after 60 mins by ADP-Glo assay relative to control; settings: time 70.0 min
Homeodomain-interacting protein kinase 2 (Homo sapiens), sequence (Q9H2X6 whole entry, looked up): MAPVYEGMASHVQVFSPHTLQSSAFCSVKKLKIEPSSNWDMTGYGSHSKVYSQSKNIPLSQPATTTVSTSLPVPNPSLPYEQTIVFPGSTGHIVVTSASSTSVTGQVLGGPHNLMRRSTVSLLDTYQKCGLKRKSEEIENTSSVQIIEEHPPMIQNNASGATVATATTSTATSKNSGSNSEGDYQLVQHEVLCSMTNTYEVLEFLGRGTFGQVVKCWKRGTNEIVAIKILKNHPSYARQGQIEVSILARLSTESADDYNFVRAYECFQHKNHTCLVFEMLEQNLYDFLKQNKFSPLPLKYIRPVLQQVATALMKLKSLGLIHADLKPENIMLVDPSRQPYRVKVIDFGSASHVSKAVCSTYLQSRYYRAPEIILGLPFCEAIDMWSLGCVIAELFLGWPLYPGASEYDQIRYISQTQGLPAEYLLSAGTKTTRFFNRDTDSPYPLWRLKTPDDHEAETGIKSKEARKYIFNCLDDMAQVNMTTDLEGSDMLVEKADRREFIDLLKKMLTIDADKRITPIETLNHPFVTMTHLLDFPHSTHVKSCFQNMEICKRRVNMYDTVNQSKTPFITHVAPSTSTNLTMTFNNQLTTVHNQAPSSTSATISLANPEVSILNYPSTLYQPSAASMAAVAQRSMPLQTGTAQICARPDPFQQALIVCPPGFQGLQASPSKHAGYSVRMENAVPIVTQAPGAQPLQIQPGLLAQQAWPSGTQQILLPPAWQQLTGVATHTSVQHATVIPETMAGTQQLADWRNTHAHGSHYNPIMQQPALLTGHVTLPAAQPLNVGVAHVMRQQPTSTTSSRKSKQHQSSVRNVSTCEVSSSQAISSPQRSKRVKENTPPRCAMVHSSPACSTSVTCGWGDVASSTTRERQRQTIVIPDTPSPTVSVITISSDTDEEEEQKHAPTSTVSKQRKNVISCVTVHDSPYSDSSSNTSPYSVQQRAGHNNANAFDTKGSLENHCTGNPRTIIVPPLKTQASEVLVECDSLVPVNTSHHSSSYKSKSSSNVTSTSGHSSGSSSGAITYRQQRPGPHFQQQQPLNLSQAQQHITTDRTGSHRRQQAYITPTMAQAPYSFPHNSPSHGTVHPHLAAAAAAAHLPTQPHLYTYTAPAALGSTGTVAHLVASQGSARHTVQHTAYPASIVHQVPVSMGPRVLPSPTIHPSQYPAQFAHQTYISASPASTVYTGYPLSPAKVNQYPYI

[12] = molecular target: Homeodomain-interacting protein kinase 1 (Homo sapiens) (UniProt Q86Z02); assay: Inhibition of HIPK1 (unknown origin) at 100 nM preincubated for 10 mins followed by substrate/ATP measured after 60 mins by ADP-Glo assay relative to control; settings: time 70.0 min
Homeodomain-interacting protein kinase 1 (Homo sapiens), sequence (Q86Z02 whole entry, looked up): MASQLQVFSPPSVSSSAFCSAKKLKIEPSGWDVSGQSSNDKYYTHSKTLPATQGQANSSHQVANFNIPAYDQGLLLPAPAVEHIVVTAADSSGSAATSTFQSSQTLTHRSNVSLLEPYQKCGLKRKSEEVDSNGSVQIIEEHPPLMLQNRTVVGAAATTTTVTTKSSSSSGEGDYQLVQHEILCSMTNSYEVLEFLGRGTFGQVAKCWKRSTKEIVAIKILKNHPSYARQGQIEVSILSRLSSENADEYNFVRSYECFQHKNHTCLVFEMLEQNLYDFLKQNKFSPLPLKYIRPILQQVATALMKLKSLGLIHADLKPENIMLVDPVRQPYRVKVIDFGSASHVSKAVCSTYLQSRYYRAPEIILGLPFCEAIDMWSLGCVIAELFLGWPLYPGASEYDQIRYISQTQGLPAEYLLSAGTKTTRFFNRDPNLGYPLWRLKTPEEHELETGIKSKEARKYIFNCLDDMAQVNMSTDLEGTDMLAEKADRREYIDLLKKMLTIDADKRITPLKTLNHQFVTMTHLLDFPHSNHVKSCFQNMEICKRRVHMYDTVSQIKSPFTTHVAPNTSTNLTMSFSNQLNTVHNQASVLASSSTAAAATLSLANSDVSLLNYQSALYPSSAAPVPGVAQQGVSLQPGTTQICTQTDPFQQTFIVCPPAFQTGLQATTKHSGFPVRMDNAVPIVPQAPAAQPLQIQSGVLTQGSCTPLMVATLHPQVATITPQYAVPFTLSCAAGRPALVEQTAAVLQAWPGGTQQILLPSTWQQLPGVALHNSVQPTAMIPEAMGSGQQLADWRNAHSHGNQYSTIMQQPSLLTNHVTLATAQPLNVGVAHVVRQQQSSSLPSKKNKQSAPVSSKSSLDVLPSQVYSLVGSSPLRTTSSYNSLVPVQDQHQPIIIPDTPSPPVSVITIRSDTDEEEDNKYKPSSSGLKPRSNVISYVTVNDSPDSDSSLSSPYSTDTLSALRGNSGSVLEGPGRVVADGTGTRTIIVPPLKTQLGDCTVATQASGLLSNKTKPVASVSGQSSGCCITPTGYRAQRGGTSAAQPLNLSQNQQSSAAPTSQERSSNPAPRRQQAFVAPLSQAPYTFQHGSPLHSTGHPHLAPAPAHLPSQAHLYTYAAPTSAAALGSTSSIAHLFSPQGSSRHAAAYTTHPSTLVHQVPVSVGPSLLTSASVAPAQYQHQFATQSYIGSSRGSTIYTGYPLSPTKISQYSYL

[13] = molecular target: Homeodomain-interacting protein kinase 4 (Homo sapiens) (UniProt Q8NE63); assay: Inhibition of HIPK4 (unknown origin) at 100 nM preincubated for 10 mins followed by substrate/ATP measured after 60 mins by ADP-Glo assay relative to control; settings: time 70.0 min
Homeodomain-interacting protein kinase 4 (Homo sapiens), sequence (Q8NE63 whole entry): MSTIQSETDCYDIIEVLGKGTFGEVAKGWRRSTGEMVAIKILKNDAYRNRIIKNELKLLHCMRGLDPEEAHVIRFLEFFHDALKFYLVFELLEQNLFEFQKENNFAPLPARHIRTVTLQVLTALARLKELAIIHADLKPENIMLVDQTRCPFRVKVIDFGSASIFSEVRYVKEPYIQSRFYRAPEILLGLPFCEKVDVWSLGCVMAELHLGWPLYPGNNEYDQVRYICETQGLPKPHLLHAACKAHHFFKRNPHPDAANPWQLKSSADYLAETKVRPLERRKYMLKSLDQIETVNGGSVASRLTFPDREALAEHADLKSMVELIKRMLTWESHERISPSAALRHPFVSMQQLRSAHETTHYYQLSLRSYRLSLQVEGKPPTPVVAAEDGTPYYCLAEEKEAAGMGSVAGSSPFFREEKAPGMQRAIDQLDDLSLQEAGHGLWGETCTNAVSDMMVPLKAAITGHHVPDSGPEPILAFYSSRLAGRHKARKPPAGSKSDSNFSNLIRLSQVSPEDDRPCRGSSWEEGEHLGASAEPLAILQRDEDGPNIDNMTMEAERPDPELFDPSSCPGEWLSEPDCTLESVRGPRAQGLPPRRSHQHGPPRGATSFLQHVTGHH

[14] = tested on: Lewis lung carcinoma cell line; assay: Anti-proliferative activity against Lewis lung carcinoma cells assessed as cell inhibition measured after 72 hrs by MTT assay; type: functional, cell-based; settings: Mus musculus
16HBE14o- = assay: Anti-proliferative activity against human 16-HBE cells assessed as cell inhibition measured after 72 hrs by MTT assay; type: functional, cell-based
[15] = tested on: Osimertinib-resistant NCI-H1975 cell; assay: Induction of apoptosis in human Osimertinib-resistant NCI-H1975 cells assessed as viable cells at 0.5 uM incubated for 16 hrs by Annexin V-FITC/PI staining based flow cytometry (reference value: 89.4 %); type: functional; settings: read-out: Activity
[16] = tested on: Osimertinib-resistant NCI-H1975 cell; assay: Induction of apoptosis in human Osimertinib-resistant NCI-H1975 cells assessed as necrotic cells at 0.5 uM incubated for 16 hrs by Annexin V-FITC/PI staining based flow cytometry (reference value: 1.17 %); type: functional
[17] = tested on: Osimertinib-resistant NCI-H1975 cell; assay: Induction of apoptosis in human Osimertinib-resistant NCI-H1975 cells assessed as viable cells at 2 uM incubated for 16 hrs by Annexin V-FITC/PI staining based flow cytometry (reference value: 89.4 %); type: functional; settings: read-out: Activity
[18] = tested on: Osimertinib-resistant NCI-H1975 cell; assay: Induction of apoptosis in human Osimertinib-resistant NCI-H1975 cells assessed as necrotic cells at 2 uM incubated for 16 hrs by Annexin V-FITC/PI staining based flow cytometry (reference value: 1.17 %); type: functional
HCC827 = assay: Anti-proliferative activity against human HCC827 cells assessed as cell inhibition measured after 72 hrs in presence of 500 nM JQ1 by MTT assay; type: functional, cell-based; settings: HCC827, 72 h
[19] = Anti-proliferative activity against human Osimertinib-resistant HCC827 cells assessed as cell inhibition measured after 72 hrs in presence of 500 nM JQ1 by MTT assay; type: functional, cell-based
[20] = Anti-proliferative activity against human Osimertinib-resistant HCC827 cells assessed as cell inhibition measured after 72 hrs in presence of 250 nM JQ1 by MTT assay; type: functional, cell-based
[21] = Selectivity ratio of IC50 for anti-proliferative activity against human Osimertinib-resistant HCC827 cells to IC50 for anti-proliferative activity against human Osimertinib-resistant HCC827 cells in presence of JQ1; type: functional
[22] = tested on: Osimertinib-resistant HCC827 cell; assay: Upregulation of c-Myc mRNA level in human Osimertinib-resistant HCC827 cells by RNA-Seq analysis; type: functional, cell-based
[23] = tested on: Osimertinib-resistant HCC827 cell; assay: Inhibition of cell cycle regulation in human Osimertinib-resistant HCC827 cells by KEGG analysis; type: functional, cell-based
[24] = tested on: Lung adenocarcinoma organoid; assay: Anti-tumor activity against Osimertinib-resistant patient (#0085)-derived human Lung adenocarcinoma organoid assessed as inhibition of cell viability measured after 96 hrs; type: functional, tissue-based; settings: Neoplasm
[25] = tested on: Lung adenocarcinoma organoid; assay: Anti-tumor activity against multidrug-resistant patient (#2422)-derived human Lung adenocarcinoma organoid assessed as inhibition of cell viability measured after 96 hrs; type: functional, tissue-based; settings: Neoplasm
[26] = tested on: Osimertinib-resistant HCC827 cell; assay: Antitumor activity against human Osimertinib-resistant HCC827 cells xenografted in BALB-c nude mouse assessed as tumor growth inhibition at 5 mg/kg, iv; type: functional, organism-based
NCI-H1975 [27] = assay: Antitumor activity against human NCI-H1975 cells xenografted in BALB-c nude mouse at 15 mg/kg, iv administered on every two days relative to control; type: functional; settings: NCI-H1975, 48 h, read-out: TGI
NCI-H1975 [28] = assay: Antitumor activity against human NCI-H1975 cells xenografted in BALB-c nude mouse at 30 mg/kg, po administered on every two days relative to control; type: functional; settings: NCI-H1975, 48 h, read-out: TGI
[29] = Toxicity in BALB-c nude mouse xenografted with human NCI-H1975 cells assessed as pathological damage in heart at 15 mg/kg, iv administered on every two days by H and E staining based analysis; type: organism-based; settings: in vivo
[30] = Toxicity in BALB-c nude mouse xenografted with human NCI-H1975 cells assessed as pathological damage in lung at 15 mg/kg, iv administered on every two days by H and E staining based analysis; type: organism-based; settings: in vivo
NCI-H1975 [31] = assay: Antitumor activity against human NCI-H1975 cells xenografted in BALB-c nude mouse assessed as tumor growth inhibition at 5 mg/kg, iv; type: functional, organism-based
Mus musculus = assay: In vivo inhibition of CDK9 in BALB-c nude mouse xenografted with human Osimertinib-resistant HCC827 cells assessed as decrease in Mcl-1 level in tumor tissue at 5 mg/kg, iv in presence of JQ1 by Western blot analysis; type: functional, organism-based
[32] = Toxicity in BALB-c mouse xenografted with human NCI-H1975 cells assessed as decrease in body weight at 5 mg/kg, iv in presence of JQ1; type: organism-based; settings: in vivo
[33] = C0 in BALB/c mouse at 2 mg/kg, iv; settings: in vivo

concentration at 0.5 h [1]: 864 ng/mL
half-life [2]: 128 min
IC50 (CDK2/Cyclin A2): 126 nM
half-life [3]: 39.3 min
microsomal CLint [4]: 21.6 µL/min/mg
microsomal CLint [5]: 23.5 µL/min/mg
microsomal CLint [6]: 10.8 µL/min/mg
AUC(0-t) [7]: 2530 ng·h/mL
clearance [8]: 13.3 mL/min/kg
Tmax [9]: 49.8 min
concentration at 0.5 h [10]: 2450 ng/mL
inhibition [11]: 96%
inhibition [12]: 88.5%
inhibition [13]: 87.6%
IC50 [14]: 170 nM
IC50 (HCC827): 9.7 nM
IC50 [24]: 44.7 nM
IC50 [25]: 121 nM
C0 [33]: 1206.2 ng/mL
Structure (SMILES): CC(=O)N1CCC(NC(=O)c2ccc3cc2OCCCCCCOc2cc(ccc2F)-c2nc(ncc2F)N3)CC1
IC50 (16HBE14o-): 480 nM
viability at 0.5 µM [15]: 63.1%
Activity [16]: 1.46%
viability at 2 µM [17]: 51%
Activity [18]: 0.97%
IC50 [19]: 5.2 nM
IC50 [20]: 12.3 nM
Ratio IC50 [21]: 10
Activity [22]: Active
inhibition [23]: Active
inhibition [26]: inactive
inhibition in vivo at 15 mg/kg (NCI-H1975 [27]): 65.8%
inhibition in vivo at 30 mg/kg (NCI-H1975 [28]): 52.5%
Activity [29]: Non-toxic
Activity [30]: Non-toxic
inhibition (NCI-H1975 [31]): inactive
inhibition (Mus musculus): Active
Activity [32]: Non-toxic
